Assay [1] addresses T1, Mitogen-activated protein kinase kinase kinase 7 (Homo sapiens) (UniProt O43318).
T1 sequence (whole entry): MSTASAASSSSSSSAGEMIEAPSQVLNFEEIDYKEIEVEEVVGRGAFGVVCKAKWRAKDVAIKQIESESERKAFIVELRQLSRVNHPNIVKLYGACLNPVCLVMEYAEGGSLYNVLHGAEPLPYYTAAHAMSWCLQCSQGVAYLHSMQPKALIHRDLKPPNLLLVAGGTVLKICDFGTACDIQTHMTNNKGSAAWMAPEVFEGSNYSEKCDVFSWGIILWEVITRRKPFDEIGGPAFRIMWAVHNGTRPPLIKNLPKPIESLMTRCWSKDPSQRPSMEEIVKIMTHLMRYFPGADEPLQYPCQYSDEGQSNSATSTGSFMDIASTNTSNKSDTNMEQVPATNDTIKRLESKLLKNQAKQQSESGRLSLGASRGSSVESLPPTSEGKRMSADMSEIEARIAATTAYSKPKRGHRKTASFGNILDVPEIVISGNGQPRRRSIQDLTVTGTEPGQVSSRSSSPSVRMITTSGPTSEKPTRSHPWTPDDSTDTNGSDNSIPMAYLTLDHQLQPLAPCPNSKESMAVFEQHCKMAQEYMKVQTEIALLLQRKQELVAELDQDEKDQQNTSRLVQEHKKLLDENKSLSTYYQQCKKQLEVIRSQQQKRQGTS
The assay is described as follows: Selectivity interaction (KinomeScan (DiscoverX)) EUB0001619a MAP3K7. To be noted: at 1 µM.

Assay [2] deals with T2, Serine/threonine-protein kinase Nek1 (Homo sapiens) (UniProt Q96PY6).
T2 sequence (whole entry): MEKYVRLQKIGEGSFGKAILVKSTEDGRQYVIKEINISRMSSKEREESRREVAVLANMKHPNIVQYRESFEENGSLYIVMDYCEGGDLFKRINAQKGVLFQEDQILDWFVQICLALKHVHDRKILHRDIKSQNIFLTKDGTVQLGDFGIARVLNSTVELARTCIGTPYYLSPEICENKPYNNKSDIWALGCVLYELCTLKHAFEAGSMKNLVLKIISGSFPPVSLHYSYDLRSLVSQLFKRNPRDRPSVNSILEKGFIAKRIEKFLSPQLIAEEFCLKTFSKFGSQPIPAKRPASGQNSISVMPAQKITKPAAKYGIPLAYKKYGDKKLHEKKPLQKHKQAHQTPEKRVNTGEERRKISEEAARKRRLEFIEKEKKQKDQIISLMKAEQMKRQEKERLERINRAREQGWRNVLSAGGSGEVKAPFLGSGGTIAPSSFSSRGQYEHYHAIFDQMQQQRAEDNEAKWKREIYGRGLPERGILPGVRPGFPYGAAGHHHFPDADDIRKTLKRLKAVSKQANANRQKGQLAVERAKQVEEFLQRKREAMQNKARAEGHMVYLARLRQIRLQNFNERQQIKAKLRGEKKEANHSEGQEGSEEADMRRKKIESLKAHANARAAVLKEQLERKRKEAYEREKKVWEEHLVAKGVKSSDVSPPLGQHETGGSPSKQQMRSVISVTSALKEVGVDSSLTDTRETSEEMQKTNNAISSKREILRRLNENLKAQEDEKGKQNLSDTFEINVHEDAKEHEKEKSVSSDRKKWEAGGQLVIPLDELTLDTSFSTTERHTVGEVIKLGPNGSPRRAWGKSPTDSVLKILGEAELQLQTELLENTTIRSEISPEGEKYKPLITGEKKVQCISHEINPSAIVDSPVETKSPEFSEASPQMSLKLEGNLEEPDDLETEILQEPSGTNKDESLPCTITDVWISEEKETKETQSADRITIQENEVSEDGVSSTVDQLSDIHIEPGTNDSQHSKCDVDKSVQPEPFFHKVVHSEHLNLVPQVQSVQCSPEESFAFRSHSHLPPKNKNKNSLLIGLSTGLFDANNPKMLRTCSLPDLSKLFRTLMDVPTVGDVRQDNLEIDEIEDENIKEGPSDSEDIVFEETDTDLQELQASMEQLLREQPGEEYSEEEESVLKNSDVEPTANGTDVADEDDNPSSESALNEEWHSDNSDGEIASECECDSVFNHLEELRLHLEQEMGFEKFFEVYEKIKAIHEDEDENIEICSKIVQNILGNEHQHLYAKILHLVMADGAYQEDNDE
In words: Selectivity interaction (KinomeScan (DiscoverX)) EUB0000607a NEK1. To be noted: at 10 µM.

The target in assay [3] is Serine/threonine-protein kinase Chk2 (Homo sapiens) (UniProt O96017). To be noted: at 10 µM.
The target of assay [4] is T3, Ephrin type-B receptor 4 (Homo sapiens) (UniProt P54760).
T3 sequence (whole entry): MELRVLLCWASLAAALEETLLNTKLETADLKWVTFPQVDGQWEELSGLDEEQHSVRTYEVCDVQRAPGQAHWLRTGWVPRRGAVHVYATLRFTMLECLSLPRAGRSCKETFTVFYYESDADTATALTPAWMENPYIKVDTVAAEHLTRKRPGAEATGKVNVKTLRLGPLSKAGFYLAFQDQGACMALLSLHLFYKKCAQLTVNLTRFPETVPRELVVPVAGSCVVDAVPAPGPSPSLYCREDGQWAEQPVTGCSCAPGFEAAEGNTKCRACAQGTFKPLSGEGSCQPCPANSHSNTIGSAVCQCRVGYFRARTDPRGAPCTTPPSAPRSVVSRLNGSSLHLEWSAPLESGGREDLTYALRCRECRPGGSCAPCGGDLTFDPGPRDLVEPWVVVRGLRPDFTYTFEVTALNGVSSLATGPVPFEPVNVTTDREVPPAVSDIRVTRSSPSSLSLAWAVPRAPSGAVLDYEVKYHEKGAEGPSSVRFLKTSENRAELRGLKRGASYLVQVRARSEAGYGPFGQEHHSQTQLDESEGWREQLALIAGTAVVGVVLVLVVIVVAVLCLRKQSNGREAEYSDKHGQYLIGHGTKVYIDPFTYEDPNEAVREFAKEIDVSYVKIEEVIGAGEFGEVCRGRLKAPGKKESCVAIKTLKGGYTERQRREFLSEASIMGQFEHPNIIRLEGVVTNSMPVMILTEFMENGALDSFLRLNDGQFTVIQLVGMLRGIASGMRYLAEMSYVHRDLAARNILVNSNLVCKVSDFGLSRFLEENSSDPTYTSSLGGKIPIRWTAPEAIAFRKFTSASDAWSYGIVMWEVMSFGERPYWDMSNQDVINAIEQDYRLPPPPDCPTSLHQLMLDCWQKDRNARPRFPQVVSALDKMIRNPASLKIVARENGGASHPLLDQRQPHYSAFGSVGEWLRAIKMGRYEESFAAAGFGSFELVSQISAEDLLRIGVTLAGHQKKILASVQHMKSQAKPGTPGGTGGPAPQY
The assay is described as follows: Selectivity interaction (KinomeScan (DiscoverX)) EUB0000092b EPHB4. As to conditions: at 10 µM.

Assay [5] concerns the target Serine/threonine-protein kinase tousled-like 2 (Homo sapiens) (UniProt Q86UE8). The assay is described as follows: Selectivity interaction (KinomeScan (DiscoverX)) EUB0001079a TLK2. To be noted: at 1 µM.

Sequence of Serine/threonine-protein kinase tousled-like 2 (Homo sapiens) (Q86UE8 whole entry, looked up): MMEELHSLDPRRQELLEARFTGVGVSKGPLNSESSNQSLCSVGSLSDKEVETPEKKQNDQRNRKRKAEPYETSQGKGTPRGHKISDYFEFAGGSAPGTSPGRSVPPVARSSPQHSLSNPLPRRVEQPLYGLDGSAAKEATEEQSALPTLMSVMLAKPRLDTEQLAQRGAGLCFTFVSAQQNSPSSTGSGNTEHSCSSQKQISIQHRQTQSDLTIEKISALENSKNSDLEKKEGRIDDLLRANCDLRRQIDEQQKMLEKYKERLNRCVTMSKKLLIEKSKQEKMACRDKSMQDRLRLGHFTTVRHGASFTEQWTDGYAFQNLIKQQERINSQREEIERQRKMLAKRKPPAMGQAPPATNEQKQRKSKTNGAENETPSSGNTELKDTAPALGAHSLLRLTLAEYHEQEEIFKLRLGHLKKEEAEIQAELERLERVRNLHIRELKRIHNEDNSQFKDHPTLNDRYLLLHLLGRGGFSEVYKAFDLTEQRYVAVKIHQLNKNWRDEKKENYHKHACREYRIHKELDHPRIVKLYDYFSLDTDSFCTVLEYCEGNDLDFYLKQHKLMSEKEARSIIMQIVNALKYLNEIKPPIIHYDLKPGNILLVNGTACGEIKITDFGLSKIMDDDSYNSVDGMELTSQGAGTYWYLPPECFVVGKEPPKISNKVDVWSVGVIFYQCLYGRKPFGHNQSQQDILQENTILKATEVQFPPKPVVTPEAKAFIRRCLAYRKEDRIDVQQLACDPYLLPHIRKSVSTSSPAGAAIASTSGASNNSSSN
Sequence of Serine/threonine-protein kinase Chk2 (Homo sapiens) (O96017 whole entry): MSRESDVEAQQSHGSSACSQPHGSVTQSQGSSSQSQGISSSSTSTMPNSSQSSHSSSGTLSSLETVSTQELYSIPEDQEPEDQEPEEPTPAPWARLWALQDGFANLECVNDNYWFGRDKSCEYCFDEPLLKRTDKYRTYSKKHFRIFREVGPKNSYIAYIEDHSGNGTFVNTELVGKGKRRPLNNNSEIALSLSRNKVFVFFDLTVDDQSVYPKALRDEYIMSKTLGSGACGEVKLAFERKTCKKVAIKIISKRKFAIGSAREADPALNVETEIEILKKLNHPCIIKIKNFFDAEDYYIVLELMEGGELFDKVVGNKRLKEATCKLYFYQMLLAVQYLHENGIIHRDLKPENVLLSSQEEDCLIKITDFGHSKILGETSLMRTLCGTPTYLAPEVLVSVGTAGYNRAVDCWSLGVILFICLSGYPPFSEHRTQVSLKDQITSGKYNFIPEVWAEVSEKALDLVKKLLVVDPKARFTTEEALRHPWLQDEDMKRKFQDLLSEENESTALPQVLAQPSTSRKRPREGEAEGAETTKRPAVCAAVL

`N#Cc1cccc(-c2c[nH]c3ncnc(N4CCOCC4)c23)c1`: the % of control in assay [1] was found to be 55%.
The compound `CNC(=O)Nc1ccc(-c2nc(N3CC4CCC(C3)O4)c3cnn(C4CCC5(CC4)OCCO5)c3n2)cc1` returned a % of control in assay [2] of 100%.
With `Cc1cc([C@@H](C)Nc2ccccc2C(=O)O)c2nc(N3CCOCC3)cc(=O)n2c1` [AZD-6482], the % of control in assay [3] was 100%.
With `CCC(=O)N1CCN(c2ccc(-n3c(=O)ccc4cnc5ccc(-c6cnc7ccccc7c6)cc5c43)cc2C(F)(F)F)CC1`, the % of control in assay [4] came out at 85%.
In the case of `Nc1cnc(N2CCc3cc(S(=O)(=O)Nc4c(F)cc(Cl)cc4F)cc(N4CCCC4=O)c32)nc1` [TP-020n], the % of control in assay [5] stood at 79%.

Values taken from ChEMBL document CHEMBL5465560, “Selectivity Literature for EUbOPEN Chemogenomic Library” (2024).
